Data as given in ChEMBL document CHEMBL4819035, “C-2-Linked Dimeric Strychnine Analogues as Bivalent Ligands Targeting Glycine Receptors” (J Nat Prod, 2021).

Tests used:
[1] = biological target: T1, Glycine receptor subunit alpha-1 (Homo sapiens, UniProt P23415); assay: Displacement of [3H]strychnine from human glycine receptor subunit alpha-1 expressed in HEK293 cell membranes preincubated for 30 mins followed by [3H]strychnine addition and measured after 30 mins by liquid scintillation counting method; set-up: species or system Membrane
T1 sequence (P23415 whole entry): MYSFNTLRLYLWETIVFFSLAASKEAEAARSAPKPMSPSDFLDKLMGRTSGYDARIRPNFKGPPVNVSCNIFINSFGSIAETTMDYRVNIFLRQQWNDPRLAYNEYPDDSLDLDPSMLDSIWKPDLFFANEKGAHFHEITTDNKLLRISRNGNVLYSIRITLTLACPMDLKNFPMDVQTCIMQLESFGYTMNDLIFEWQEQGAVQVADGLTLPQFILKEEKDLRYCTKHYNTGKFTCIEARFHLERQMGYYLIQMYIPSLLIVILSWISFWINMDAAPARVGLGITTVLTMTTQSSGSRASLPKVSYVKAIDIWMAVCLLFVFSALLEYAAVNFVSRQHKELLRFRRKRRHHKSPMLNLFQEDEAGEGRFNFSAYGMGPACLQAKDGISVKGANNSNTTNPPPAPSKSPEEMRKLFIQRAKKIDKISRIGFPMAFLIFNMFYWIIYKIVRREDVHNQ

[2] = biological target: T1, Glycine receptor subunit alpha-1; assay: Antagonist activity at human glycine receptor subunit alpha-1 assessed as inhibition of glycine-induced current measured at the later state of compound application by patch-clamp assay
[3] = biological target: T2, Glycine receptor (alpha-1/beta) (Homo sapiens, UniProt P23415+P48167); assay: Antagonist activity at human glycine receptor subunit alpha-1beta expressed in human tsA201 cells assessed as reduction in glycine-induced response incubated for 30 mins by fluorescence-based FLIPR membrane potential blue assay; format: cell-based; conditions: for pIC50: tsa201
T2 sequence (P48167 whole entry, one chain of several): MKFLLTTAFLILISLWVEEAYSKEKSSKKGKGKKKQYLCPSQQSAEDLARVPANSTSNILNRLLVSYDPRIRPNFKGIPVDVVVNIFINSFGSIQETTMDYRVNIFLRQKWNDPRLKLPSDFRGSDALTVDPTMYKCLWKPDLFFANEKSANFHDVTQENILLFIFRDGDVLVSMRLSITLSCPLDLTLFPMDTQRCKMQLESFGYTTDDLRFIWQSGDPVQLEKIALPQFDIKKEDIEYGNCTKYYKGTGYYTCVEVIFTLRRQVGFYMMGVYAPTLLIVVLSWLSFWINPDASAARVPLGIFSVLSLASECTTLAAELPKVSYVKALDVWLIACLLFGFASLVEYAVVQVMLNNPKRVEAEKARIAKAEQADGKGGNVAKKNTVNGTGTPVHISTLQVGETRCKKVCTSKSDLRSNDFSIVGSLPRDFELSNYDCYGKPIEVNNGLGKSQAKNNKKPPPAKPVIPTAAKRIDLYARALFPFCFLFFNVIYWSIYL

[4] = biological target: T1, Glycine receptor subunit alpha-1; assay: Antagonist activity at human glycine receptor subunit alpha-1 expressed in human tsA201 cells assessed as reduction in glycine-induced response incubated for 30 mins by fluorescence-based FLIPR membrane potential blue assay; format: cell-based
[5] = biological target: T1, Glycine receptor subunit alpha-1; assay: Antagonist activity at human glycine receptor subunit alpha-1 assessed as inhibition of glycine-induced current measured at the onset of compound application by patch-clamp assay
[6] = biological target: T1, Glycine receptor subunit alpha-1; assay: Antagonist activity at human glycine receptor subunit alpha-1 expressed in HEK293 cells assessed as reduction in glycine-induced currents by whole-cell patch-clamp assay; format: cell-based
[7] = biological target: T2, Glycine receptor (alpha-1/beta); assay: Antagonist activity at human glycine receptor subunit alpha-1beta expressed in HEK293 cells assessed as reduction in glycine-induced currents by whole-cell patch-clamp assay; format: cell-based

| SMILES | IC50 ([3]; read-out: IC50) | IC50 ([4]; read-out: IC50) | IC50 [6] | other results |
| --- | --- | --- | --- | --- |
| COCCOCCOCCOCCOCCOCCOCCOCCOCCOCCOCCOCCC(=O)NCCCCC(=O)Nc1ccc2c(c1)[C@@]13CCN4CC5=CCO[C@H]6CC(=O)N2[C@H]1[C@H]6[C@H]5C[C@H]43 | 10000 nM | 15000 nM |  | Ki [1]: 436 nM; IC50 [2]: 137 nM; IC50 [5]: 852 nM |
| O=C(CCCCCCCC(=O)NCC(=O)Nc1ccc2c(c1)[C@@]13CCN4CC5=CCO[C@H]6CC(=O)N2[C@H]1[C@H]6[C@H]5C[C@H]43)NCC(=O)Nc1ccc2c(c1)[C@@]13CCN4CC5=CCO[C@H]6CC(=O)N2[C@H]1[C@H]6[C@H]5C[C@H]43 | 1700 nM | 2100 nM | 400 nM |  |
| O=C(CCCCCCCCC(=O)Nc1ccc2c(c1)[C@@]13CCN4CC5=CCO[C@H]6CC(=O)N2[C@H]1[C@H]6[C@H]5C[C@H]43)Nc1ccc2c(c1)[C@@]13CCN4CC5=CCO[C@H]6CC(=O)N2[C@H]1[C@H]6[C@H]5C[C@H]43 | 10000 nM | 7200 nM | 1500 nM | IC50 [7]: 1900 nM |
| COCCOCCOCCOCCOCCOCCOCCOCCOCCOCCOCCOCCC(=O)NCCCCCCCCCCC(=O)Nc1ccc2c(c1)[C@@]13CCN4CC5=CCO[C@H]6CC(=O)N2[C@H]1[C@H]6[C@H]5C[C@H]43 | 10000 nM | 20000 nM |  | Ki [1]: 977 nM; IC50 [2]: 158 nM; IC50 [5]: 5720 nM |
| O=C(CCOCCOCCOCCOCCOCCOCCOCCOCCOCCOCCOCCOCCC(=O)NCCCCC(=O)Nc1ccc2c(c1)[C@@]13CCN4CC5=CCO[C@H]6CC(=O)N2[C@H]1[C@H]6[C@H]5C[C@H]43)NCCCCC(=O)Nc1ccc2c(c1)[C@@]13CCN4CC5=CCO[C@H]6CC(=O)N2[C@H]1[C@H]6[C@H]5C[C@H]43 | 1800 nM | 4300 nM |  | Ki [1]: 81 nM; IC50 [2]: 55 nM; IC50 [5]: 1340 nM |
| O=C(CCCCCCCCCCCCCCC(=O)NCCCCC(=O)Nc1ccc2c(c1)[C@@]13CCN4CC5=CCO[C@H]6CC(=O)N2[C@H]1[C@H]6[C@H]5C[C@H]43)NCCCCC(=O)Nc1ccc2c(c1)[C@@]13CCN4CC5=CCO[C@H]6CC(=O)N2[C@H]1[C@H]6[C@H]5C[C@H]43 | 4100 nM | 7900 nM |  |  |
| CCCCCCCC(=O)Nc1ccc2c(c1)[C@@]13CCN4CC5=CCO[C@H]6CC(=O)N2[C@H]1[C@H]6[C@H]5C[C@H]43 | 680 nM | 1200 nM |  |  |
| O=C(CCCCCC(=O)NCC(=O)Nc1ccc2c(c1)[C@@]13CCN4CC5=CCO[C@H]6CC(=O)N2[C@H]1[C@H]6[C@H]5C[C@H]43)NCC(=O)Nc1ccc2c(c1)[C@@]13CCN4CC5=CCO[C@H]6CC(=O)N2[C@H]1[C@H]6[C@H]5C[C@H]43 | 2200 nM | 2800 nM | 130 nM | IC50 ([4]; read-out: pIC50 (converted)): 2690 nM |
| O=C(CCCCCCCCCCC(=O)NCC(=O)Nc1ccc2c(c1)[C@@]13CCN4CC5=CCO[C@H]6CC(=O)N2[C@H]1[C@H]6[C@H]5C[C@H]43)NCC(=O)Nc1ccc2c(c1)[C@@]13CCN4CC5=CCO[C@H]6CC(=O)N2[C@H]1[C@H]6[C@H]5C[C@H]43 | 1900 nM | 2700 nM | 100 nM |  |
| O=C(CCCCCCCCCCCCCCC(=O)NCC(=O)Nc1ccc2c(c1)[C@@]13CCN4CC5=CCO[C@H]6CC(=O)N2[C@H]1[C@H]6[C@H]5C[C@H]43)NCC(=O)Nc1ccc2c(c1)[C@@]13CCN4CC5=CCO[C@H]6CC(=O)N2[C@H]1[C@H]6[C@H]5C[C@H]43 | 2200 nM | 3200 nM |  |  |
| O=C(CCOCCOCCOCCOCCOCCOCCOCCOCCOCCOCCOCCOCCC(=O)NCCCCCCCCCCC(=O)Nc1ccc2c(c1)[C@@]13CCN4CC5=CCO[C@H]6CC(=O)N2[C@H]1[C@H]6[C@H]5C[C@H]43)NCCCCCCCCCCC(=O)Nc1ccc2c(c1)[C@@]13CCN4CC5=CCO[C@H]6CC(=O)N2[C@H]1[C@H]6[C@H]5C[C@H]43 | 3900 nM | 10000 nM |  | Ki [1]: 204 nM; IC50 [2]: 67 nM; IC50 [5]: 3310 nM |
| O=C(CCCCCCCCCCCCC(=O)Nc1ccc2c(c1)[C@@]13CCN4CC5=CCO[C@H]6CC(=O)N2[C@H]1[C@H]6[C@H]5C[C@H]43)Nc1ccc2c(c1)[C@@]13CCN4CC5=CCO[C@H]6CC(=O)N2[C@H]1[C@H]6[C@H]5C[C@H]43 | 210 nM | 430 nM |  |  |
| O=C(CCCCCCCCCCCCCCCCCCCCC(=O)NCCCCCCCCCCC(=O)Nc1ccc2c(c1)[C@@]13CCN4CC5=CCO[C@H]6CC(=O)N2[C@H]1[C@H]6[C@H]5C[C@H]43)NCCCCCCCCCCC(=O)Nc1ccc2c(c1)[C@@]13CCN4CC5=CCO[C@H]6CC(=O)N2[C@H]1[C@H]6[C@H]5C[C@H]43 | > 10000 nM | > 10000 nM | 2900 nM | pIC50 [3]: < 5; pIC50 ([4]; tsa201): < 5 |
| O=C(CCCCCCCCC(=O)NCC(=O)Nc1ccc2c(c1)[C@@]13CCN4CC5=CCO[C@H]6CC(=O)N2[C@H]1[C@H]6[C@H]5C[C@H]43)NCC(=O)Nc1ccc2c(c1)[C@@]13CCN4CC5=CCO[C@H]6CC(=O)N2[C@H]1[C@H]6[C@H]5C[C@H]43 | 880 nM | 730 nM |  |  |
| O=C(CCCCCCCCCCC(=O)NCCCCCCCCCCC(=O)Nc1ccc2c(c1)[C@@]13CCN4CC5=CCO[C@H]6CC(=O)N2[C@H]1[C@H]6[C@H]5C[C@H]43)NCCCCCCCCCCC(=O)Nc1ccc2c(c1)[C@@]13CCN4CC5=CCO[C@H]6CC(=O)N2[C@H]1[C@H]6[C@H]5C[C@H]43 | 50000 nM | 30000 nM | 3100 nM | IC50 ([3]; read-out: pIC50 (converted)): 31600 nM |
| O=C(CCCCCCC(=O)NCC(=O)Nc1ccc2c(c1)[C@@]13CCN4CC5=CCO[C@H]6CC(=O)N2[C@H]1[C@H]6[C@H]5C[C@H]43)NCC(=O)Nc1ccc2c(c1)[C@@]13CCN4CC5=CCO[C@H]6CC(=O)N2[C@H]1[C@H]6[C@H]5C[C@H]43 | 2400 nM | 2800 nM | 170 nM |  |
| O=C(CCCCCCC(=O)NCCCCCCCCCCC(=O)Nc1ccc2c(c1)[C@@]13CCN4CC5=CCO[C@H]6CC(=O)N2[C@H]1[C@H]6[C@H]5C[C@H]43)NCCCCCCCCCCC(=O)Nc1ccc2c(c1)[C@@]13CCN4CC5=CCO[C@H]6CC(=O)N2[C@H]1[C@H]6[C@H]5C[C@H]43 | 20000 nM | 30000 nM | 1400 nM | IC50 ([3]; read-out: pIC50 (converted)): 50100 nM |
| O=C(CCCCCCCCCCCCC(=O)NCC(=O)Nc1ccc2c(c1)[C@@]13CCN4CC5=CCO[C@H]6CC(=O)N2[C@H]1[C@H]6[C@H]5C[C@H]43)NCC(=O)Nc1ccc2c(c1)[C@@]13CCN4CC5=CCO[C@H]6CC(=O)N2[C@H]1[C@H]6[C@H]5C[C@H]43 | 2000 nM | 1700 nM |  |  |
| O=C(CCCCCCCCCCCCCCC(=O)NCCCCCCCCCCC(=O)Nc1ccc2c(c1)[C@@]13CCN4CC5=CCO[C@H]6CC(=O)N2[C@H]1[C@H]6[C@H]5C[C@H]43)NCCCCCCCCCCC(=O)Nc1ccc2c(c1)[C@@]13CCN4CC5=CCO[C@H]6CC(=O)N2[C@H]1[C@H]6[C@H]5C[C@H]43 | > 10000 nM | 10000 nM |  | pIC50 [3]: < 5 |
| O=C(CCCCC(=O)Nc1ccc2c(c1)[C@@]13CCN4CC5=CCO[C@H]6CC(=O)N2[C@H]1[C@H]6[C@H]5C[C@H]43)Nc1ccc2c(c1)[C@@]13CCN4CC5=CCO[C@H]6CC(=O)N2[C@H]1[C@H]6[C@H]5C[C@H]43 | 10000 nM | 6100 nM |  |  |
| CCCCCCCC(=O)NCC(=O)Nc1ccc2c(c1)[C@@]13CCN4CC5=CCO[C@H]6CC(=O)N2[C@H]1[C@H]6[C@H]5C[C@H]43 | 510 nM | 780 nM | 90 nM |  |
| O=C(CCC(=O)Nc1ccc2c(c1)[C@@]13CCN4CC5=CCO[C@H]6CC(=O)N2[C@H]1[C@H]6[C@H]5C[C@H]43)Nc1ccc2c(c1)[C@@]13CCN4CC5=CCO[C@H]6CC(=O)N2[C@H]1[C@H]6[C@H]5C[C@H]43 | 10000 nM | 10000 nM |  |  |
| CCCCCCCC(=O)NCCCCCCCCCCC(=O)Nc1ccc2c(c1)[C@@]13CCN4CC5=CCO[C@H]6CC(=O)N2[C@H]1[C@H]6[C@H]5C[C@H]43 | 5800 nM | 10000 nM | 1700 nM |  |
| O=C(CCCC(=O)Nc1ccc2c(c1)[C@@]13CCN4CC5=CCO[C@H]6CC(=O)N2[C@H]1[C@H]6[C@H]5C[C@H]43)Nc1ccc2c(c1)[C@@]13CCN4CC5=CCO[C@H]6CC(=O)N2[C@H]1[C@H]6[C@H]5C[C@H]43 | 30000 nM | 10000 nM |  |  |
